Laboratory results from US20230310628A1, “Multi-Targeted Multi-Valent Ligand Drug Particles for the Treatment and Prevention of Diseases and Conditions” (priority 2017, published 2023).

Test system: cell lines expressing HER2 and EGFR
Assay: Cytotoxicity studies in vitro, free versus liposomal doxorubicin
Assay type: cell-based, human
Conditions: compared with liposomal doxorubicin
Experimental: Cytotoxicity studies were conducted with doxorubicin as it is the staple drug for liposomal delivery.
For cytotoxicity studies, cells cultured overnight in 96-well plates (10*10^3 cells/well) were incubated with doxorubicin-load liposomes (100 μg/ml with 1/3 dilutions) at 37° C. for 4 hr, washed with PBS, and grown in medium for 3 additional days. Cell viability was analyzed by MTT assay.

SMILES: COc1cccc2c1C(=O)c1c(O)c3c(c(O)c1C2=O)C[C@@](O)(C(=O)CO)C[C@@H]3O[C@H]1C[C@H](N)[C@H](O)[C@H](C)O1 [free doxorubicin, doxorubicin]
- effectiveness in cytotoxicity studies in vitro: most effective
